According to publication PMC10819458, “Using Pharmacokinetic–Pharmacodynamic Modeling to Study the Main Active Substances of the Anticancer Effect in Mice from Panax ginseng–Ophiopogon japonicus” (Molecules, 2024):
Like-named read-outs stand apart in the source and are kept apart here.

Experiment: Lung-tissue pharmacokinetics of PG–OJ components in tumor-bearing mice (UPLC–MS/MS)
Format: in vivo, BALB/c nude male mice
Conditions: for MRT last: read-out: MRT(0–t) (converted)
From the text: This study employed Ultra-Performance Liquid Chromatography–Mass Spectrometry (UPLC–MS/MS) to examine the pharmacokinetic properties of 20 bioactive components in a cell-derived xenograft (CDX) model following oral administration of a 10.2 g/kg PG–OJ extract.
Healthy BALB/c nude male mice (weight: 18–21 g) were purchased from Beijing Huafukang Biotechnology Co., Ltd. (Beijing, China, License Number: SCXK (Jing) 2021-0006). After 3 days of acclimatization, the mice were randomly divided into the control group (CG), model group (MG), and the combined-administration group of P. ginseng and O. japonicus (HM1-HM13) ([…], four-fold clinical-equivalent doses). Subsequently, except for the CG, 0.2 mL (approximately 2 × 10^7 cells) of A549 cell suspension was aspirated with a 1 mL syringe and injected into the right axillary fossa of the model group and drug-administration-group mice. The control-group mice were injected with an equal volume of PBS at the same location. The tumor diameter was measured daily using a caliper. The model was successful when the tumor diameter > 3 mm. The combined-administration group of P. ginseng and O. japonicus was given the corresponding drug orally, once a day, with 0.2 mL/mouse each time. The control group and the model group mice were given the same volume of distilled water, continuously orally for 21 days. During this period, the body weight and tumor volume of the mice were recorded. At the end of the last administration, the mice were […] 0.083, 0.167, 0.25, 0.5, 0.75, 1, 2, 3, 4, 6, 8, 12, 24 h later. After injecting 0.1% pentobarbital sodium, blood was collected from the eye-socket vein, the mice were decapitated, and the tumor and lung tissues were carefully removed.
After homogenizing 50 mg of right-lung-tissue sample, 2 mL of acetonitrile was added to precipitate proteins. The mixture was oscillated for 2 min and then centrifuged for 10 min (12,000 rpm, 4 °C). The supernatant from the new centrifuge tube was collected and dried with nitrogen at room temperature. Finally, the supernatant was redissolved in 50 μL of acetonitrile solution containing 0.1% formic acid. After oscillating for 1 min, another centrifugation step was performed, and the resulting supernatant was used for analysis.
Samples were analyzed on the Vanquish UPLC System (Thermo, Waltham, MA, USA). The Agilent C18 column (4.6 × 150 mm, 4 μm, PN:693970-902T) was selected. The mobile phase was composed of 0.1% formic acid aqueous solution (A) and 0.1% formic acid acetonitrile solution (B). The procedure of gradient elution was as follows: 0–10 min, 95–75% A; 10–25 min, 75–45% A; 25–40 min, 45–30% A; 40–50 min, 30–5% A; 55–55.1 min, 5–95% A; 55.1–60 min, 95% A. The column temperature was set to 30 °C with the flow rate of 0.3 mL/min and the injection volume of 3.0 μL. The mass-spectrometry detection with negative-ion mode was carried out using an Orbitrap Exploris 120 Mass Spectrometer (Thermo, Waltham, MA, USA) and Electrospray ionization (ESI). The sheath-gas-flow rate was […] and the auxiliary-gas-flow rate was […]. The capillary temperature was 325 °C, and the resolution was 120,000 in full scan mode with the mass scan range of 80~1500 m/z. The secondary cracking was performed with HCD at a collision voltage of 30 eV, and unnecessary MS/MS information was removed using the dynamic exclusion method.

[1] = male, BALB/c nude, mouse, in vivo, po
[2] = male, BALB/c nude, mouse, in vivo, po, Tmax
[3] = lung tissue, A549 tumor-bearing mice, intragastric PG–OJ extract 10.2 g/kg (6.8 g/kg elsewhere in the source), mean ± SD, n = 6
[4] = lung tissue, oral PG–OJ extract, in words
[5] = male, BALB/c nude, mouse, lung tissue, po, 10.2 g/kg, lung tissue, A549 tumor-bearing mice, intragastric PG–OJ extract 10.2 g/kg (6.8 g/kg elsewhere in the source), mean ± SD, n = 6, read-out: Tmax (converted)
[6] = male, BALB/c nude, mouse, lung tissue, po, 10.2 g/kg, lung tissue, oral PG–OJ extract, read-out: time to reach peak concentration
[7] = male, BALB/c nude, mouse, po, lung tissue, A549 tumor-bearing mice, intragastric PG–OJ extract 10.2 g/kg (6.8 g/kg elsewhere in the source), mean ± SD, n = 6, read-out: Cmax
[8] = male, BALB/c nude, mouse, po, lung tissue, A549 tumor-bearing mice, intragastric PG–OJ extract 10.2 g/kg (6.8 g/kg elsewhere in the source), mean ± SD, n = 6
[9] = male, BALB/c nude, mouse, po, lung tissue, A549 tumor-bearing mice, intragastric PG–OJ extract 10.2 g/kg (6.8 g/kg elsewhere in the source), mean ± SD, n = 6, read-out: T1/2
[10] = lung tissue, oral PG–OJ extract

Row | Compound | half-life [1] | Tmax [2] | AUC(0–t) [3] | AUC(0–∞) [3] | Tmax [5] | Cmax [7] | MRT last [8] | half-life [9] | other results
1 | 24(R)-pseudoginsenoside F11 |  |  |  |  |  |  |  |  | T1/2 (mouse, in vivo, po): 227.16 ± 12.27 min; Tmax (mouse, in vivo, po): 0.25 ± 0 h; time to reach maximum concentration (Cmax) after administration (mouse, in vivo, po): ≤ 15 min
2 | CC(C)=CCC[C@](C)(O[C@@H]1O[C@H](CO)[C@@H](O)[C@H](O)[C@H]1O)[C@H]1CC[C@]2(C)[C@@H]1[C@H](O)C[C@@H]1[C@@]3(C)CC[C@H](O)C(C)(C)[C@@H]3[C@@H](O)C[C@]12C [Ginsenoside F1] | 134 ± 14.4 min | 4 h |  |  |  |  |  |  | exposure level in lung tissue (mouse, in vivo, po): extremely low
3 | CC(C)=CCC[C@](C)(O[C@@H]1O[C@H](CO)[C@@H](O)[C@H](O)[C@H]1O)[C@H]1CC[C@]2(C)[C@@H]1[C@H](O)C[C@@H]1[C@@]3(C)CC[C@H](O[C@@H]4O[C@H](CO)[C@@H](O)[C@H](O)[C@H]4O)C(C)(C)[C@@H]3CC[C@]12C [Ginsenoside F2] | 350 ± 16.1 min | 1 h |  |  |  |  |  |  | AUC(0–∞) compared with other components (mouse, in vivo, po): significantly higher than those of other components
4 | CC(C)=CCC[C@](C)(O[C@@H]1O[C@H](CO[C@@H]2O[C@H](CO)[C@@H](O)[C@H](O)[C@H]2O)[C@@H](O)[C@H](O)[C@H]1O)[C@H]1CC[C@]2(C)[C@@H]1[C@H](O)C[C@@H]1[C@@]3(C)CC[C@H](O[C@@H]4O[C@H](CO)[C@@H](O)[C@H](O)[C@H]4O[C@@H]4O[C@H](CO)[C@@H](O)[C@H](O)[C@H]4O)C(C)(C)[C@@H]3CC[C@]12C [Ginsenoside Rb1] |  |  | 227,245.91 ± 5460.47 ng/g·min | 283,948.70 ± 17,261.40 ng/g·min | 12 h | 441 ± 15.7 ng/g | 11.5 h | 1970 ± 189 min | AUC(0–∞) compared with other components [4]: significantly higher than those of other components; Tmax [6]: 12 h
5 | CC(C)=CCC[C@](C)(O[C@@H]1O[C@H](CO[C@@H]2OC[C@H](O)[C@H](O)[C@H]2O)[C@@H](O)[C@H](O)[C@H]1O)[C@H]1CC[C@]2(C)[C@@H]1[C@H](O)C[C@@H]1[C@@]3(C)CC[C@H](O[C@@H]4O[C@H](CO)[C@@H](O)[C@H](O)[C@H]4O[C@@H]4O[C@H](CO)[C@@H](O)[C@H](O)[C@H]4O)C(C)(C)[C@@H]3CC[C@]12C [Ginsenoside Rb2] |  |  | 3935.63 ± 598.40 ng·min/g | 6076.50 ± 664.68 ng·min/g |  | 7.2 ± 0.96 ng/g | 11.9 h | 1190 ± 263 min | 
6 | CC(C)=CCC[C@](C)(O[C@@H]1O[C@H](CO[C@@H]2OC[C@@H](O)[C@H](O)[C@H]2O)[C@@H](O)[C@H](O)[C@H]1O)[C@H]1CC[C@]2(C)[C@@H]1[C@H](O)C[C@@H]1[C@@]3(C)CC[C@H](O[C@@H]4O[C@H](CO)[C@@H](O)[C@H](O)[C@H]4O[C@@H]4O[C@H](CO)[C@@H](O)[C@H](O)[C@H]4O)C(C)(C)[C@@H]3CC[C@]12C [Ginsenoside Rb3] |  |  | 4049.29 ± 622.84 ng·min/g | 16,689.44 ± 2585.97 ng/g·min |  | 5.92 ± 0.45 ng/g | 13.8 h | 4000 ± 516 min | 
7 | CC(C)=CCC[C@](C)(O[C@@H]1O[C@H](CO[C@@H]2O[C@@H](CO)[C@H](O)[C@H]2O)[C@@H](O)[C@H](O)[C@H]1O)[C@H]1CC[C@]2(C)[C@@H]1[C@H](O)C[C@@H]1[C@@]3(C)CC[C@H](O[C@@H]4O[C@H](CO)[C@@H](O)[C@H](O)[C@H]4O[C@@H]4O[C@H](CO)[C@@H](O)[C@H](O)[C@H]4O)C(C)(C)[C@@H]3CC[C@]12C [Ginsenoside Rc] |  |  | 23,180.66 ± 703.80 ng/g·min | 25,129.88 ± 1611.92 ng/g·min | 12 h | 43 ± 2.11 ng/g | 11.6 h | 445 ± 101 min | Tmax [6]: 12 h
8 | CC(C)=CCC[C@](C)(O[C@@H]1O[C@H](CO)[C@@H](O)[C@H](O)[C@H]1O)[C@H]1CC[C@]2(C)[C@@H]1[C@H](O)C[C@@H]1[C@@]3(C)CC[C@H](O[C@@H]4O[C@H](CO)[C@@H](O)[C@H](O)[C@H]4O[C@@H]4O[C@H](CO)[C@@H](O)[C@H](O)[C@H]4O)C(C)(C)[C@@H]3CC[C@]12C [Ginsenoside Rd] |  |  | 46,163.94 ± 1033.00 ng/g·min | 56,296.57 ± 6663.99 ng/g·min |  | 83 ± 2.11 ng/g | 11.1 h | 971 ± 221 min | AUC(0–∞) compared with other components [4]: significantly higher than those of other components
9 | CC(C)=CCC[C@](C)(O[C@@H]1O[C@H](CO)[C@@H](O)[C@H](O)[C@H]1O)[C@H]1CC[C@]2(C)[C@@H]1[C@H](O)C[C@@H]1[C@@]3(C)CC[C@H](O)C(C)(C)[C@@H]3[C@@H](O[C@@H]3O[C@H](CO)[C@@H](O)[C@H](O)[C@H]3O[C@@H]3O[C@@H](C)[C@H](O)[C@@H](O)[C@H]3O)C[C@]12C [Ginsenoside Re] |  |  | 3815.68 ± 233.30 ng·min/g | 3933.20 ± 224.66 ng·min/g | 0.0833 h | 132 ± 32.9 ng/g | 1.57 h | 106 ± 4.36 min | time to reach maximum concentration (Cmax) after administration [10]: ≤ 15 min
10 | CC(C)=CCC[C@](C)(O)[C@H]1CC[C@]2(C)[C@@H]1[C@H](O)C[C@@H]1[C@@]3(C)CC[C@H](O)C(C)(C)[C@@H]3[C@@H](O[C@@H]3O[C@H](CO)[C@@H](O)[C@H](O)[C@H]3O[C@@H]3O[C@H](CO)[C@@H](O)[C@H](O)[C@H]3O)C[C@]12C [Ginsenoside Rf] | 76.6 ± 1.04 min | 0.25 h |  |  |  |  |  |  | time to reach maximum concentration (Cmax) after administration (mouse, in vivo, po): ≤ 15 min
11 | CC(C)=CCC[C@](C)(O[C@@H]1O[C@H](CO)[C@@H](O)[C@H](O)[C@H]1O)[C@H]1CC[C@]2(C)[C@@H]1[C@H](O)C[C@@H]1[C@@]3(C)CC[C@H](O)C(C)(C)[C@@H]3[C@@H](O[C@@H]3O[C@H](CO)[C@@H](O)[C@H](O)[C@H]3O)C[C@]12C [Ginsenoside Rg1] |  |  | 2295.03 ± 213.32 ng·min/g | 2345.90 ± 212.68 ng·min/g | 0.25 h | 50.2 ± 6.67 ng/g | 2.26 h | 98.1 ± 2.74 min | time to reach maximum concentration (Cmax) after administration [10]: ≤ 15 min
12 | CC(C)=CCC[C@](C)(O)[C@H]1CC[C@]2(C)[C@@H]1[C@H](O)C[C@@H]1[C@@]3(C)CC[C@H](O)C(C)(C)[C@@H]3[C@@H](O[C@@H]3O[C@H](CO)[C@@H](O)[C@H](O)[C@H]3O[C@@H]3O[C@@H](C)[C@H](O)[C@@H](O)[C@H]3O)C[C@]12C [Ginsenoside Rg2] | 215 ± 6.15 min | 0.25 h |  |  |  |  |  |  | AUC(0–∞) compared with other components (mouse, in vivo, po): significantly higher than those of other components; time to reach maximum concentration (Cmax) after administration (mouse, in vivo, po): ≤ 15 min
13 | CC(C)=CCC[C@](C)(O)[C@H]1CC[C@]2(C)[C@@H]1[C@H](O)C[C@@H]1[C@@]3(C)CC[C@H](O[C@@H]4O[C@H](CO)[C@@H](O)[C@H](O)[C@H]4O[C@@H]4O[C@H](CO)[C@@H](O)[C@H](O)[C@H]4O)C(C)(C)[C@@H]3CC[C@]12C [Ginsenoside Rg3] |  |  | 1879.87 ± 53.24 ng·min/g | 14,133.43 ± 3134.88 ng/g·min |  |  |  |  | Cmax [3]: 4.75 ± 0.12 ng/g; MRT(0–t) [3]: 230.11 ± 2.69 min; T1/2 [3]: 2381.66 ± 562.33 min; Tmax [3]: 0.0833 ± 0 h
